From PubChem BioAssay (NCI)
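Compound exposure: 48 hours, 5 concentrations, 96-well plates. GI50 = concentration required for 50% inhibition of growth. TGI: concentration producing complete growth inhibition.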

Tests used:
Test in all cases: inhibition of tumour cell growth, NCI panel, 48 h
786-0 renal = test system: 786-0 renal
A498 renal = test system: A498 renal
A549 NSCLC = test system: A549 NSCLC
ACHN renal = test system: ACHN renal
BT-549 breast = test system: BT-549 breast
CAKI-1 renal = test system: CAKI-1 renal
CCRF-CEM leukemia = test system: CCRF-CEM leukemia
COLO 205 colon = test system: COLO 205 colon
DU-145 prostate = test system: DU-145 prostate
EKVX NSCLC = test system: EKVX NSCLC
HCC-2998 colon = test system: HCC-2998 colon
HCT-116 colon = test system: HCT-116 colon
HCT-15 colon = test system: HCT-15 colon
HL-60(TB) leukemia = test system: HL-60(TB) leukemia
HOP-62 NSCLC = test system: HOP-62 NSCLC
HOP-92 NSCLC = test system: HOP-92 NSCLC
HS 578T breast = test system: HS 578T breast
HT29 colon = test system: HT29 colon
IGROV1 ovarian = test system: IGROV1 ovarian
K-562 leukemia = test system: K-562 leukemia
KM12 colon = test system: KM12 colon
LOX IMVI melanoma = test system: LOX IMVI melanoma
M14 melanoma = test system: M14 melanoma
MALME-3M melanoma = test system: MALME-3M melanoma
MCF7 breast = test system: MCF7 breast
MDA-MB-231 breast = test system: MDA-MB-231 breast
MDA-MB-435 = test system: MDA-MB-435
MOLT-4 leukemia = test system: MOLT-4 leukemia
NCI-H226 lung = test system: NCI-H226 lung
NCI-H23 lung = test system: NCI-H23 lung
NCI-H460 lung = test system: NCI-H460 lung
NCI-H522 lung = test system: NCI-H522 lung
NCI/ADR-RES ovarian = test system: NCI/ADR-RES ovarian
OVCAR-3 ovarian = test system: OVCAR-3 ovarian
OVCAR-4 ovarian = test system: OVCAR-4 ovarian
OVCAR-5 ovarian = test system: OVCAR-5 ovarian
OVCAR-8 ovarian = test system: OVCAR-8 ovarian
PC-3 prostate = test system: PC-3 prostate
RXF 393 renal = test system: RXF 393 renal
SF-268 CNS = test system: SF-268 CNS
SF-295 CNS = test system: SF-295 CNS
SF-539 CNS = test system: SF-539 CNS
SK-MEL-2 melanoma = test system: SK-MEL-2 melanoma
SK-MEL-28 melanoma = test system: SK-MEL-28 melanoma
SK-MEL-5 melanoma = test system: SK-MEL-5 melanoma
SK-OV-3 ovarian = test system: SK-OV-3 ovarian
SN12C renal = test system: SN12C renal
SNB-19 CNS = test system: SNB-19 CNS
SNB-75 CNS = test system: SNB-75 CNS
SW-620 colon = test system: SW-620 colon
T-47D breast = test system: T-47D breast
TK-10 renal = test system: TK-10 renal
U251 CNS = test system: U251 CNS
UACC-257 melanoma = test system: UACC-257 melanoma
UACC-62 melanoma = test system: UACC-62 melanoma
UO-31 renal = test system: UO-31 renal

In the case of CSc1ccc(C2=C(c3ccccc3)C(=O)OC2)cc1, the GI50 (786-0 renal) is reported as 1.21 µM, the TGI (786-0 renal) is reported as 19.7 µM and the GI50 (A498 renal) is reported as 3.13 µM. It also gave a TGI (A498 renal) of 13.9 µM, a GI50 (A549 NSCLC) of 0.677 µM and a TGI (A549 NSCLC) greater than 100 µM. The GI50 (ACHN renal) was 0.517 µM, the TGI (ACHN renal) was 33.4 µM and the GI50 (BT-549 breast) was 16.2 µM. It also gave a TGI (BT-549 breast) greater than 100 µM, a GI50 (CAKI-1 renal) of 0.409 µM and a TGI (CAKI-1 renal) of 10.1 µM. The GI50 (CCRF-CEM leukemia) was 0.508 µM, the TGI (CCRF-CEM leukemia) was 2.85 µM and the GI50 (COLO 205 colon) was 0.763 µM. For the same compound, the TGI (COLO 205 colon) was greater than 100 µM, the GI50 (DU-145 prostate) was 4.49 µM and the TGI (DU-145 prostate) was greater than 100 µM. For the same compound, the GI50 (EKVX NSCLC) was 5.76 µM, the TGI (EKVX NSCLC) was greater than 100 µM and the GI50 (HCC-2998 colon) was 0.309 µM. For the same compound, the TGI (HCC-2998 colon) was 18.9 µM, the GI50 (HCT-116 colon) was 0.637 µM and the TGI (HCT-116 colon) was 61.7 µM. It also gave a GI50 (HCT-15 colon) of 0.202 µM, a TGI (HCT-15 colon) of 3.46 µM and a GI50 (HL-60(TB) leukemia) of 0.35 µM. It also gave a TGI (HL-60(TB) leukemia) of 2.07 µM, a GI50 (HOP-62 NSCLC) of 1.96 µM and a TGI (HOP-62 NSCLC) greater than 70 µM. The GI50 (HOP-92 NSCLC) was 2.13 µM, the TGI (HOP-92 NSCLC) was 44.7 µM and the GI50 (HS 578T breast) was 0.219 µM. The TGI (HS 578T breast) was 1.22 µM, the GI50 (HT29 colon) was 0.239 µM and the TGI (HT29 colon) was greater than 100 µM. For the same compound, the GI50 (IGROV1 ovarian) was 2.18 µM, the TGI (IGROV1 ovarian) was greater than 63.9 µM and the GI50 (K-562 leukemia) was 0.101 µM. The TGI (K-562 leukemia) was greater than 100 µM, the GI50 (KM12 colon) was 0.356 µM and the TGI (KM12 colon) was greater than 77 µM. For the same compound, the GI50 (LOX IMVI melanoma) was 0.385 µM, the TGI (LOX IMVI melanoma) was 38.7 µM and the GI50 (M14 melanoma) was 0.483 µM. For the same compound, the TGI (M14 melanoma) was greater than 46.1 µM, the GI50 (MALME-3M melanoma) was 3.29 µM and the TGI (MALME-3M melanoma) was 64.1 µM. For the same compound, the GI50 (MCF7 breast) was 0.81 µM, the GI50 (MDA-MB-231 breast) was 0.425 µM and the TGI (MDA-MB-231 breast) was 20.9 µM. The GI50 (MDA-MB-435) was 0.0923 µM, the TGI (MDA-MB-435) was 0.364 µM and the GI50 (MOLT-4 leukemia) was 0.174 µM. For the same compound, the TGI (MOLT-4 leukemia) was greater than 100 µM, the GI50 (NCI-H226 lung) was 4.3 µM and the TGI (NCI-H226 lung) was 53.3 µM. The GI50 (NCI-H23 lung) was 3.78 µM, the TGI (NCI-H23 lung) was greater than 41.1 µM and the GI50 (NCI-H460 lung) was 1.29 µM. The TGI (NCI-H460 lung) was greater than 34.8 µM, the GI50 (NCI-H522 lung) was 0.619 µM and the TGI (NCI-H522 lung) was 2.45 µM. It also gave a GI50 (NCI/ADR-RES ovarian) of 0.35 µM, a TGI (NCI/ADR-RES ovarian) greater than 34.9 µM and a GI50 (OVCAR-3 ovarian) of 0.188 µM. It also gave a TGI (OVCAR-3 ovarian) of 0.568 µM, a GI50 (OVCAR-4 ovarian) of 21.2 µM and a TGI (OVCAR-4 ovarian) greater than 100 µM. For the same compound, the GI50 (OVCAR-5 ovarian) was 5.18 µM, the TGI (OVCAR-5 ovarian) was greater than 100 µM and the GI50 (OVCAR-8 ovarian) was 0.639 µM. The TGI (OVCAR-8 ovarian) was greater than 100 µM, the GI50 (PC-3 prostate) was 0.884 µM and the TGI (PC-3 prostate) was 21.1 µM. It also gave a GI50 (RXF 393 renal) of 1.87 µM, a GI50 (SF-268 CNS) of 3.02 µM and a TGI (SF-268 CNS) greater than 64.7 µM. It also gave a GI50 (SF-295 CNS) of 0.597 µM, a TGI (SF-295 CNS) of 1.98 µM and a GI50 (SF-539 CNS) of 1.49 µM. It also gave a TGI (SF-539 CNS) of 12.3 µM, a GI50 (SK-MEL-2 melanoma) of 1.64 µM and a TGI (SK-MEL-2 melanoma) greater than 100 µM. It also gave a GI50 (SK-MEL-28 melanoma) of 6.69 µM, a TGI (SK-MEL-28 melanoma) greater than 100 µM and a GI50 (SK-MEL-5 melanoma) of 0.732 µM. For the same compound, the TGI (SK-MEL-5 melanoma) was 3.56 µM, the GI50 (SK-OV-3 ovarian) was 1.51 µM and the TGI (SK-OV-3 ovarian) was greater than 100 µM. The GI50 (SN12C renal) was 7.68 µM, the TGI (SN12C renal) was greater than 100 µM and the GI50 (SNB-19 CNS) was 0.804 µM. It also gave a TGI (SNB-19 CNS) greater than 100 µM, a GI50 (SNB-75 CNS) of 5.67 µM and a TGI (SNB-75 CNS) greater than 100 µM. For the same compound, the GI50 (SW-620 colon) was 1 µM, the TGI (SW-620 colon) was greater than 20.1 µM and the GI50 (T-47D breast) was 1.22 µM. It also gave a TGI (T-47D breast) greater than 100 µM, a GI50 (TK-10 renal) of 1.49 µM and a TGI (TK-10 renal) of 18.4 µM. The GI50 (U251 CNS) was 0.329 µM, the TGI (U251 CNS) was 7.05 µM and the TGI (UACC-257 melanoma) was greater than 100 µM. It also gave a GI50 (UACC-62 melanoma) of 0.715 µM, a TGI (UACC-62 melanoma) of 53.8 µM and a GI50 (UO-31 renal) of 2.66 µM. It also gave a TGI (UO-31 renal) greater than 80.3 µM.
